Experimental data: patent US20180125842A1, “Ergoloid for Cancer” (priority 2016, published 2018)

System: splenic lymphoma
Assay: Clinical use in splenic lymphoma
Type: in vivo, human
Conditions: before addition of Ergoloid

Substance: Rituxan: an immunotherapy
- disease course on Rituxan alone: gradually allowing progression
